Reference: patent publication US20220323437A1, “METHODS FOR TREATING PULMONARY ARTERIAL HYPERTENSION” (ACTELION PHARMACEUTICALS LTD, priority 2019, published 2022)

Experiment: Adverse events during switch from oral to i.v. selexipag and back in subjects with stable PAH (Phase 3 study)
Type: in vivo, human
Conditions: for AE incidence: Blindness unilateral / AE incidence: Chromaturia / AE incidence: Cough / AE incidence: Dyspnoea / AE incidence: Flushing / AE incidence: Headache / AE incidence: Hypokalaemia / AE incidence: Nasopharyngitis / AE incidence: Nausea / AE incidence: Oedema peripheral / AE incidence: Rhegmatogenous retinal detachment / AE incidence: Right ventricular failure / AE incidence: Upper respiratory tract infection / Subjects with at least one AE: Period 3 + follow-up (oral selexipag, up to 37 days)
Description: This was a prospective, multicenter, open-label, single-sequence, cross-over, Phase 3 study. Based on the dose of selexipag received at study entry, subjects were allocated to one of the following groups, selexipag 200-1000 μg b.i.d. or selexipag 1200-1600 μg b.i.d. See, FIG. 1. The study comprised the following periods:
(ii) Treatment and observation period: The treatment and observation period included the following consecutive periods: • Period 1 included oral selexipag pre-treatment period for 1 day, in-hospital. This period started with intake of the morning dose of oral selexipag on Day 1 at Visit 2 and ended the following day, before initiation of the first infusion of i.v. selexipag. • Period 2 included i.v. selexipag treatment period for 36 hours [3 infusions], in-hospital. This period started in the morning of Day 2 at Visit 2 with the start of the first infusion of i.v. selexipag and ended in the evening of Day 3 at Visit 2 before the evening administration of oral selexipag. Administration of oral selexipag was interrupted during the i.v. selexipag treatment period. • Period 3 included oral selexipag post-treatment period for 7 to 11 day. This period started in the evening of Day 3 at Visit 2 with the administration of oral selexipag and ended 7-11 days later, at Visit 3.
The endpoints analyzed for Period 1, Period 2, and Period 3 and follow-up period combined included discontinuations due to prostacyclin-associated AEs, adverse events (AEs) and serious adverse events (SAEs), prostacyclin-associated AEs, AEs related to injection site reactions, and PAH-related AEs.
The endpoints analyzed for (i) Period 1, Period 2, and Period 3 and follow-up period combined (ii) Period 1 and Period 2 combined, and (iii) Period 2 and Period 3 combined included discontinuations due to prostacyclin-associated AEs, discontinuations due to any AEs, AEs and SAEs, prostacyclin-associated AEs, PAH-related AEs, change from baseline in vital signs (systolic blood pressure [SBP], diastolic blood pressure [DBP], and pulse rate) and body weight, ECG abnormalities, marked laboratory abnormalities, and change from baseline in WHO FC.
The statistical analysis was mainly descriptive, without formal hypothesis testing. Exact Pearson-Clopper CIs for the incidence of AEs were computed.

[1] = Period 2 (intravenous selexipag treatment), high dose cohort (1200-1600 μg), N = 12
[2] = Period 2 (intravenous selexipag treatment), low dose cohort (200-1000 μg), N = 8
[3] = Period 2 (intravenous selexipag treatment), total, N = 20
[4] = Period 2 (iv selexipag), total, N = 20
[5] = Period 3 (oral selexipag), high dose cohort (1200-1600 μg), N = 12
[6] = Period 3 (oral selexipag), low dose cohort (200-1000 μg), N = 8
[7] = Period 3 (oral selexipag), total, N = 20
[8] = Period 3 + Follow-up (oral selexipag), total, N = 20
[9] = high dose cohort (1200-1600 μg), N = 12
[10] = low dose cohort (200-1000 μg), N = 8

Compound: CC(C)N(CCCCOCC(=O)NS(C)(=O)=O)c1cnc(-c2ccccc2)c(-c2ccccc2)n1 [selexipag, 2-{4-[(5,6-diphenylpyrazin-2-yl)(propan-2-yl)amino]butoxy}-N-(methanesulfonyl)acetamide]
- Prostacyclin-associated AE incidence: Vomiting [1]: 1 n (%)
- Subjects with at least one prostacyclin-associated AE [1]: 6 n (%)
- Prostacyclin-associated AE incidence: Diarrhoea [2]: 0 n (%)
- Prostacyclin-associated AE incidence: Flushing [2]: 0 n (%)
- Prostacyclin-associated AE incidence: Headache [2]: 1 (12.5) n (%)
- Prostacyclin-associated AE incidence: Myalgia [2]: 0 n (%)
- Prostacyclin-associated AE incidence: Nausea [2]: 0 n (%)
- Prostacyclin-associated AE incidence: Pain in jaw [2]: 0 n (%)
- Prostacyclin-associated AE incidence: Tension headache [2]: 0 n (%)
- Prostacyclin-associated AE incidence: Vomiting [2]: 0 n (%)
- Subjects with at least one prostacyclin-associated AE [2]: 1 (12.5) n (%)
- Prostacyclin-associated AE incidence: Diarrhoea [3]: 1 n (%)
- Prostacyclin-associated AE incidence: Flushing [3]: 1 n (%)
- Prostacyclin-associated AE incidence: Headache [3]: 4 n (%)
- Prostacyclin-associated AE incidence: Myalgia [3]: 1 n (%)
- Prostacyclin-associated AE incidence: Nausea [3]: 1 n (%)
- Prostacyclin-associated AE incidence: Pain in jaw [3]: 1 n (%)
- Prostacyclin-associated AE incidence: Tension headache [3]: 1 n (%)
- Prostacyclin-associated AE incidence: Vomiting [3]: 1 n (%)
- Deaths [4]: 0 n (%)
- Discontinuations due to prostacyclin-associated AEs [4]: 0 n (%)
- Number of subjects with at least one Injection site reaction-AE (ISR-AE) [4]: 2 n (%)
- Number of subjects with at least one Prostacyclin-associated AEs [4]: 7 n (%)
- Number of subjects with at least one Serious adverse events (SAEs) [4]: 0 n (%)
- SAE incidence: Blindness unilateral [4]: 0 n (%)
- SAE incidence: Rhegmatogenous retinal detachment [4]: 0 n (%)
- SAE incidence: Right ventricular failure [4]: 0 n (%)
- PAH-related AE: peripheral edema (Period 3): 2 subjects
- PAH-related AE: right ventricular failure in the context of respiratory tract infection (Period 3): 1 subject
- subjects with PAH-related AEs (Period 3): 3 subjects
- SAE incidence: Right ventricular failure (Period 3 (oral selexipag) + Follow-up, total, N = 20): 1 n (%)
- Prostacyclin-associated AE incidence: Flushing [5]: 1 n (%)
- Prostacyclin-associated AE incidence: Headache [5]: 1 n (%)
- Prostacyclin-associated AE incidence: Nausea [5]: 1 n (%)
- Prostacyclin-associated AE incidence: Flushing [6]: 0 n (%)
- Prostacyclin-associated AE incidence: Headache [6]: 0 n (%)
- Prostacyclin-associated AE incidence: Nausea [6]: 0 n (%)
- Prostacyclin-associated AE incidence: Flushing [7]: 1 n (%)
- Prostacyclin-associated AE incidence: Headache [7]: 1 n (%)
- Prostacyclin-associated AE incidence: Nausea [7]: 1 n (%)
- Deaths [8]: 0 n (%)
- Discontinuations due to prostacyclin-associated AEs [8]: 0 n (%)
- Number of subjects with at least one Injection site reaction-AE (ISR-AE) [8]: 0 n (%)
- Number of subjects with at least one Prostacyclin-associated AEs [8]: 1 n (%)
- Number of subjects with at least one Serious adverse events (SAEs) [8]: 2 n (%)
- AE incidence: Blindness unilateral [9]: 1 n (%)
- AE incidence: Chromaturia [9]: 1 n (%)
- AE incidence: Cough [9]: 1 n (%)
- AE incidence: Dyspnoea [9]: 1 n (%)
- AE incidence: Flushing [9]: 1 n (%)
- AE incidence: Headache [9]: 1 n (%)
- AE incidence: Hypokalaemia [9]: 1 n (%)
- AE incidence: Nasopharyngitis [9]: 0 n (%)
- AE incidence: Nausea [9]: 1 n (%)
- AE incidence: Oedema peripheral [9]: 1 n (%)
- AE incidence: Rhegmatogenous retinal detachment [9]: 1 n (%)
- AE incidence: Right ventricular failure [9]: 1 n (%)
- AE incidence: Upper respiratory tract infection [9]: 1 n (%)
- Subjects with at least one AE [9]: 6 n (%)
- AE incidence: Blindness unilateral [10]: 0 n (%)
- AE incidence: Chromaturia [10]: 0 n (%)
- AE incidence: Cough [10]: 0 n (%)
- AE incidence: Dyspnoea [10]: 0 n (%)
- AE incidence: Flushing [10]: 0 n (%)
- AE incidence: Headache [10]: 0 n (%)
- AE incidence: Hypokalaemia [10]: 0 n (%)
- AE incidence: Nasopharyngitis [10]: 1 (12.5) n (%)
- AE incidence: Nausea [10]: 0 n (%)
- AE incidence: Oedema peripheral [10]: 1 (12.5) n (%)
- AE incidence: Rhegmatogenous retinal detachment [10]: 0 n (%)
- AE incidence: Right ventricular failure [10]: 0 n (%)
- AE incidence: Upper respiratory tract infection [10]: 0 n (%)
- Subjects with at least one AE [10]: 2 (25.0) n (%)
- AE incidence: Blindness unilateral (total, N = 20): 1 n (%)
- AE incidence: Chromaturia (total, N = 20): 1 n (%)
- AE incidence: Cough (total, N = 20): 1 n (%)
- AE incidence: Dyspnoea (total, N = 20): 1 n (%)
- AE incidence: Flushing (total, N = 20): 1 n (%)
- AE incidence: Headache (total, N = 20): 1 n (%)
- AE incidence: Hypokalaemia (total, N = 20): 1 n (%)
- AE incidence: Nasopharyngitis (total, N = 20): 1 n (%)
- AE incidence: Nausea (total, N = 20): 1 n (%)
- AE incidence: Oedema peripheral (total, N = 20): 2 n (%)
- AE incidence: Rhegmatogenous retinal detachment (total, N = 20): 1 n (%)
- AE incidence: Right ventricular failure (total, N = 20): 1 n (%)
- AE incidence: Upper respiratory tract infection (total, N = 20): 1 n (%)
- Subjects with at least one AE (total, N = 20): 8 n (%)
- PAH-related AEs (Periods 1 and 2): No PAH-related AEs
- AE profile during treatment with i.v. selexipag (conclusion): consistent with the known safety profile of selexipag
- tolerability of the switch from oral selexipag (Period 1) to i.v. selexipag (Period 2) and back to oral selexipag (Period 3) (conclusion): well tolerated
- Deaths (whole study): No subject died
- discontinued study treatment due to an AE (whole study): No subject
- prostacyclin-associated AEs reported as severe, serious, or resulting in discontinuation of study treatment (whole study): None
